ChEMBL document CHEMBL3991601, “The target landscape of clinical kinase drugs” (Science, 2017)
Active and inactive are the calls of the source. Cut-off read from the data, not from the text of the source, for most assays here: actives have a measured Kd and inactives only a lower limit.

Tests used:
[1] = target: Elongation factor Tu, mitochondrial (Homo sapiens, UniProt P49411)
[2] = target: Serine/threonine-protein kinase/endoribonuclease IRE2 (Homo sapiens, UniProt Q76MJ5)
[3] = target: T1, Bone morphogenetic protein receptor type-2 (Homo sapiens, UniProt Q13873)
T1 sequence (Q13873 whole entry): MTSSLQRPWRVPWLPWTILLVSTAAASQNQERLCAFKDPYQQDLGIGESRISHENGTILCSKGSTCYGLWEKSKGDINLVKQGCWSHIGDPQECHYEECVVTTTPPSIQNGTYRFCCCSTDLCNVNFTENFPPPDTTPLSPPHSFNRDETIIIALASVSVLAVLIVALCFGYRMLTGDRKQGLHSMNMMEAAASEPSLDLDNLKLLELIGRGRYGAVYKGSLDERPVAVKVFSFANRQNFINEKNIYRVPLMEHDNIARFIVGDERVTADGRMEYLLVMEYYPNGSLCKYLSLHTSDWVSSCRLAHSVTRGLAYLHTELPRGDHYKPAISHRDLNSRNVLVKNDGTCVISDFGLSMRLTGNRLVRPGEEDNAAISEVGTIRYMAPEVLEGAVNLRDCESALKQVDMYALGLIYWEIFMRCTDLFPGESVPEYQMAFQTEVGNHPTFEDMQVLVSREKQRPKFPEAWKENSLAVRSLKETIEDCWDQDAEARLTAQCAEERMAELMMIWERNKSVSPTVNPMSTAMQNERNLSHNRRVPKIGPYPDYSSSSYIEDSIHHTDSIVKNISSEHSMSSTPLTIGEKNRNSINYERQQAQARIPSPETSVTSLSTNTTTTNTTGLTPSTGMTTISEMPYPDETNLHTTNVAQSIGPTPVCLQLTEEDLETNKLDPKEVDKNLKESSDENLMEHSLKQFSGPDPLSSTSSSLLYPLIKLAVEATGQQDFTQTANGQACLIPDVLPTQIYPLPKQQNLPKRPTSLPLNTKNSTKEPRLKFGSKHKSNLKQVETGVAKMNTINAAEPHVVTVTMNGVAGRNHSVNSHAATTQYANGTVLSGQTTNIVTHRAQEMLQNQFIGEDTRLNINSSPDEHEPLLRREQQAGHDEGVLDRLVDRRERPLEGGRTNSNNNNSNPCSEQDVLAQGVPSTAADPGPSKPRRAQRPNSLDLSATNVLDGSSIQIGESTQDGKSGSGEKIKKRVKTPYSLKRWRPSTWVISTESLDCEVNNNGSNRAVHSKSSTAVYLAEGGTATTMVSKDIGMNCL

[4] = target: T2, Mitogen-activated protein kinase kinase kinase 5 (Homo sapiens, UniProt Q99683)
T2 sequence (Q99683 whole entry): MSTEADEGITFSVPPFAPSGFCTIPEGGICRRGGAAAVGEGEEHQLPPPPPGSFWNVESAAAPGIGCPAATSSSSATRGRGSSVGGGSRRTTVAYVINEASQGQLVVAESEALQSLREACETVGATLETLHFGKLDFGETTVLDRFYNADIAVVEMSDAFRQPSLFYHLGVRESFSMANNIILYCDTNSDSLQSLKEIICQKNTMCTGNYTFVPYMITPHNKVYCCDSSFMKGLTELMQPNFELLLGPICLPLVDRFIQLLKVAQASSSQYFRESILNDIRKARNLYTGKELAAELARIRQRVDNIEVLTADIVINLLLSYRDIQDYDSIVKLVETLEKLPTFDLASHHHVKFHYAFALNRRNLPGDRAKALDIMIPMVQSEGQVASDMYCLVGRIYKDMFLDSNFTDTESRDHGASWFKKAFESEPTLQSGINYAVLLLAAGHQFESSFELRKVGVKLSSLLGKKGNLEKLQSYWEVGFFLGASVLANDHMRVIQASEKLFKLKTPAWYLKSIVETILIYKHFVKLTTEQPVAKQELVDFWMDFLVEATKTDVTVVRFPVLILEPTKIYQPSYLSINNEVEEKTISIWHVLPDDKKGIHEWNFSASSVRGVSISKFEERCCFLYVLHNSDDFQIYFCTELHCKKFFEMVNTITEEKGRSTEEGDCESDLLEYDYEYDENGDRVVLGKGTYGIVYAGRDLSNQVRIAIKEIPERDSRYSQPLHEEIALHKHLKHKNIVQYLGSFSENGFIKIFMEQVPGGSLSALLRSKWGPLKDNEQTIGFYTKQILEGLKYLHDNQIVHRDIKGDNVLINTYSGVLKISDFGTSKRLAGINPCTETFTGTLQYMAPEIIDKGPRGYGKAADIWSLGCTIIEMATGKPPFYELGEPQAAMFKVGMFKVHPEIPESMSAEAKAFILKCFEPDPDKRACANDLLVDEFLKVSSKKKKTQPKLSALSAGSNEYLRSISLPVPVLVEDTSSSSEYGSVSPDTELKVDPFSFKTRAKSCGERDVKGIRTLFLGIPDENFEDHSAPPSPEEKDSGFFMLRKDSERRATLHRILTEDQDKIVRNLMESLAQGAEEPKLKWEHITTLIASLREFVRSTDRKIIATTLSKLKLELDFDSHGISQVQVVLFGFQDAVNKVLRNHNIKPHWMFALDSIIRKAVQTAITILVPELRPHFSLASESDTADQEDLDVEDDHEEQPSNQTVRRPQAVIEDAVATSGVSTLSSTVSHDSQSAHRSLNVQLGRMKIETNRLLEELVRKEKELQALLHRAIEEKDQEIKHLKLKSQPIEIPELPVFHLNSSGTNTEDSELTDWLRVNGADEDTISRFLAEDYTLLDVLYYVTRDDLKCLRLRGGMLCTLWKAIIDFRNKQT

[5] = target: Interleukin-1 receptor-associated kinase 1 (Homo sapiens, UniProt P51617)
[6] = target: cAMP-dependent protein kinase catalytic subunit alpha (Homo sapiens, UniProt P17612)
[7] = target: AP2-associated protein kinase 1 (Homo sapiens, UniProt Q2M2I8)
[8] = target: Tyrosine-protein kinase Fyn (Homo sapiens, UniProt P06241)
Note: in the data inactive means no Kd found up to 30 µM.

Sequence of Serine/threonine-protein kinase/endoribonuclease IRE2 (Q76MJ5 whole entry): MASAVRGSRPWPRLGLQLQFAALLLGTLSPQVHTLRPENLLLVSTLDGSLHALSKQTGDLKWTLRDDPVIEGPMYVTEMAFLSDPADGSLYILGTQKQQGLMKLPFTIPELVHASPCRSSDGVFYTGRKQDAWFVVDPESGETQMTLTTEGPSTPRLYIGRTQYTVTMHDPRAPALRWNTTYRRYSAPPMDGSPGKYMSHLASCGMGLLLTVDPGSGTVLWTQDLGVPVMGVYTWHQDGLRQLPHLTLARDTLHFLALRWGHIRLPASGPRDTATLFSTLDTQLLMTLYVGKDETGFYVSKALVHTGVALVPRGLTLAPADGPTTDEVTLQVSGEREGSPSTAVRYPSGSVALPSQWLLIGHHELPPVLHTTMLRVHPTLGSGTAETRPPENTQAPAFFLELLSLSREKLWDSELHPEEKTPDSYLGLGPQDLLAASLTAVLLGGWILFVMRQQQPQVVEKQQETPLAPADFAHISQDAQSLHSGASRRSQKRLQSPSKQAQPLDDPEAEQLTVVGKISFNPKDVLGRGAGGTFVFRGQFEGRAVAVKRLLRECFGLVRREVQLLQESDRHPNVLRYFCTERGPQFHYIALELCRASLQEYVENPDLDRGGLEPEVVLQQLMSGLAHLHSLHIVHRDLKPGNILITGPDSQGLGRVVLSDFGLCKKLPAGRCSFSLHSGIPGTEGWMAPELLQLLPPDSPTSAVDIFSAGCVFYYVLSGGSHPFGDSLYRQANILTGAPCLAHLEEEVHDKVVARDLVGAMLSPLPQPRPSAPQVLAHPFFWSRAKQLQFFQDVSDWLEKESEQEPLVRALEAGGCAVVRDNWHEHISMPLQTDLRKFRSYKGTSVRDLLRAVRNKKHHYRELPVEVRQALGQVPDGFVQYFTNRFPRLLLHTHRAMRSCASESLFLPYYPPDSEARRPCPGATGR
Sequence of AP2-associated protein kinase 1 (Q2M2I8 whole entry): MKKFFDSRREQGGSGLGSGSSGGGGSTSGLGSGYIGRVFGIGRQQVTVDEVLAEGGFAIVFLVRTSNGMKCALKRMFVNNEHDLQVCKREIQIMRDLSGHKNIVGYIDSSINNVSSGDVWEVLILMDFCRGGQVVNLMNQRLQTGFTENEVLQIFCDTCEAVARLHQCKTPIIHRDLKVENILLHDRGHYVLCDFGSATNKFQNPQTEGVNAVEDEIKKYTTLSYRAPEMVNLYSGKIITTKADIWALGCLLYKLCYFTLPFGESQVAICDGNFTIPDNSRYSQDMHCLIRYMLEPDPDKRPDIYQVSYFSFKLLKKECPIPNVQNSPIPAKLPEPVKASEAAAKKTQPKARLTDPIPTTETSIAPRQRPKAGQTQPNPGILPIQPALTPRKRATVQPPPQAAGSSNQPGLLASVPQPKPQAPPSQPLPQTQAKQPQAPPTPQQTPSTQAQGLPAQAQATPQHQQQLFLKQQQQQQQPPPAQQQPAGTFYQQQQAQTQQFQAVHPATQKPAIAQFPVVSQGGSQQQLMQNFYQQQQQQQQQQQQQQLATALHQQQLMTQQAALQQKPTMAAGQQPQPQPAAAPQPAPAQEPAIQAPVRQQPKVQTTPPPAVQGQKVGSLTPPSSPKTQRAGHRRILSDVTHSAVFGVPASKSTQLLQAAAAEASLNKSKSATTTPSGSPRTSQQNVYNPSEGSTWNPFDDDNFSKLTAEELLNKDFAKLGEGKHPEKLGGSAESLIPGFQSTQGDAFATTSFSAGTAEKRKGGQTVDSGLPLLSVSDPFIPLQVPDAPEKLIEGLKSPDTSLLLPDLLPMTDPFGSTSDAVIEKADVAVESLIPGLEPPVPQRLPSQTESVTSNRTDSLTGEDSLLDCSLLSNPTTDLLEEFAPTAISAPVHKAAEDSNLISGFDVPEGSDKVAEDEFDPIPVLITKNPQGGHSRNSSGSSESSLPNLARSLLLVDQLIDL
Sequence of Tyrosine-protein kinase Fyn (P06241 whole entry): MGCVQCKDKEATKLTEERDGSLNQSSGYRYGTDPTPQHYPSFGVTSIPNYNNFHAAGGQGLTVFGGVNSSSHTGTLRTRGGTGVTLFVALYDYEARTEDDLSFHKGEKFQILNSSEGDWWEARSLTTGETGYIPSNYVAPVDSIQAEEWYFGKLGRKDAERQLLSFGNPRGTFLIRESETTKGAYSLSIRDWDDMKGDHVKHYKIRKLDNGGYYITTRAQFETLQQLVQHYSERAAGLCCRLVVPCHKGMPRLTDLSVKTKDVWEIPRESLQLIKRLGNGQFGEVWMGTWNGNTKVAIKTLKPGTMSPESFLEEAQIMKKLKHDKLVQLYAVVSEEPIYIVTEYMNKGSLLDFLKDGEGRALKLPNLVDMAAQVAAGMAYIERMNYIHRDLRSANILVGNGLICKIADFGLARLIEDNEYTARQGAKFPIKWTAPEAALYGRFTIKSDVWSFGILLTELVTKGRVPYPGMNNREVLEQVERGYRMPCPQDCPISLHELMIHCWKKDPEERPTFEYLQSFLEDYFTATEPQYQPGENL
Sequence of Interleukin-1 receptor-associated kinase 1 (P51617 whole entry): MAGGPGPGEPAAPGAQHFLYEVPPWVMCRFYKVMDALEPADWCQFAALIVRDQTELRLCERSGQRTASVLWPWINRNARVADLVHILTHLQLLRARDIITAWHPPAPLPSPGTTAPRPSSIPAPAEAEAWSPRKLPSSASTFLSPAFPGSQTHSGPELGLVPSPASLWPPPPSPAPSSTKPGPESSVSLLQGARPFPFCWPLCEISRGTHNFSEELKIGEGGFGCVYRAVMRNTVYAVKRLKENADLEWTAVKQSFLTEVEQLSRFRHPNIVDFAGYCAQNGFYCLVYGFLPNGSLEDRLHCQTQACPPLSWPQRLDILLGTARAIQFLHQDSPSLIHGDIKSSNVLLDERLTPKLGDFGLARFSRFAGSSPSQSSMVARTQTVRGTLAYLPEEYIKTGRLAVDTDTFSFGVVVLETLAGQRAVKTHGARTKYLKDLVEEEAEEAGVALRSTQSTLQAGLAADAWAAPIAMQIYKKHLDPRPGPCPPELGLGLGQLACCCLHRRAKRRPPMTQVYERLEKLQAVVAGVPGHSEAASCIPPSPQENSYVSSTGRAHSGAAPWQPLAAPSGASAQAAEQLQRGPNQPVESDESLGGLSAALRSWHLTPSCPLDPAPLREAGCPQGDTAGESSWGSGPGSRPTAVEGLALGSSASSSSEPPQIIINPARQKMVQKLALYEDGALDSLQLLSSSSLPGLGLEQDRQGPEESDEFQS

Row | SMILES | Kd [1] | Kd [2] | Kd [3] | Kd [4] | Kd [5] | Kd [6] | Kd [7] | Kd [8]
1 | FC(F)(F)c1ccc(CNc2ccc(Cc3c[nH]c4ncc(Cl)cc34)cn2)cn1 [PEXIDARTINIB] | > 30 µM (inactive) | > 30 µM (inactive) | > 30 µM (inactive) | > 30 µM (inactive) | > 30 µM (inactive) | > 30 µM (inactive) | 13.7 µM (active) | > 30 µM (inactive)
2 | Cc1cc(Nc2nc(N[C@@H](C)c3ncc(F)cn3)ncc2Cl)n[nH]1 [AZD-1480] | > 30 µM (inactive) | > 30 µM (inactive) | > 30 µM (inactive) | > 30 µM (inactive) | > 30 µM (inactive) | > 30 µM (inactive) | > 30 µM (inactive) | > 30 µM (inactive)
3 | N#CCNC(=O)c1ccc(-c2ccnc(Nc3ccc(N4CCOCC4)cc3)n2)cc1 [MOMELOTINIB] | > 30 µM (inactive) | > 30 µM (inactive) | > 30 µM (inactive) | > 30 µM (inactive) | > 30 µM (inactive) | > 30 µM (inactive) | 0.004 µM (active) | > 30 µM (inactive)
4 | C[C@@H]1COC(Nc2ccc3ncnc(Nc4ccc(OCc5nccs5)c(Cl)c4)c3c2)=N1 [VARLITINIB] | > 30 µM (inactive) | > 30 µM (inactive) | > 30 µM (inactive) | > 30 µM (inactive) | > 30 µM (inactive) | > 30 µM (inactive) | > 30 µM (inactive) | > 30 µM (inactive)
5 | COc1cc(F)c(F)c(Nc2ccc(I)cc2F)c1NS(=O)(=O)C1(C[C@H](O)CO)CC1 [REFAMETINIB] | > 30 µM (inactive) | > 30 µM (inactive) | > 30 µM (inactive) | > 30 µM (inactive) | > 30 µM (inactive) | > 30 µM (inactive) | > 30 µM (inactive) | > 30 µM (inactive)
6 | O=c1[nH]c([C@@H]2CCCN2)nc2c1oc1ccc(Cl)cc12 | > 30 µM (inactive) | > 30 µM (inactive) | > 30 µM (inactive) | > 30 µM (inactive) | > 30 µM (inactive) | > 30 µM (inactive) | > 30 µM (inactive) | > 30 µM (inactive)
7 | O=C(O)c1ccc2c(c1)nc(Nc1cccc(Cl)c1)c1ccncc12 [SILMITASERTIB] | > 30 µM (inactive) | > 30 µM (inactive) | 1.06 µM (active) | > 30 µM (inactive) | > 30 µM (inactive) | > 30 µM (inactive) | > 30 µM (inactive) | > 30 µM (inactive)
8 | CC[C@@](C)(Nc1ccnc(-c2c[nH]c3ncccc23)n1)C(=O)NCC(F)(F)F [DECERNOTINIB] | > 30 µM (inactive) | > 30 µM (inactive) | > 30 µM (inactive) | > 30 µM (inactive) | > 30 µM (inactive) | > 30 µM (inactive) | 4.25 µM (active) | > 30 µM (inactive)
9 | Cc1c(NC(=O)OC[C@@H]2COCCN2)cn2ncnc(Nc3ccc4c(cnn4Cc4cccc(F)c4)c3)c12 [AC-480] | > 30 µM (inactive) | > 30 µM (inactive) | > 30 µM (inactive) | > 30 µM (inactive) | > 30 µM (inactive) | > 30 µM (inactive) | > 30 µM (inactive) | > 30 µM (inactive)
10 | COCCN1CCN(Cc2ccc(-c3n[nH]c4c3C(=O)c3c(NC(=O)NN5CCOCC5)cccc3-4)cc2)CC1 [RGB-286638] | > 30 µM (inactive) | > 30 µM (inactive) | 0.153 µM | > 30 µM (inactive) | > 30 µM (inactive) | > 30 µM (inactive) | 0.022 µM (active) | > 30 µM (inactive)
11 | Cc1c(Cn2c(C)nc3c(C(=O)O)cc(N4CCOCC4)cc32)cccc1C(F)(F)F [GSK-2636771] | > 30 µM (inactive) | > 30 µM (inactive) | > 30 µM (inactive) | > 30 µM (inactive) | > 30 µM (inactive) | > 30 µM (inactive) | > 30 µM (inactive) | > 30 µM (inactive)

More lines, now with the values ahead:

Row | Kd [1] | Kd [2] | Kd [3] | Kd [4] | Kd [5] | Kd [6] | Kd [7] | Kd [8] | SMILES
12 | > 30 µM (inactive) | > 30 µM (inactive) | > 30 µM (inactive) | > 30 µM (inactive) | > 30 µM (inactive) | > 30 µM (inactive) | > 30 µM (inactive) | > 30 µM (inactive) | S=C(NCc1ccc2c(c1)OCO2)N1CCN(c2ncnc3c2oc2ccccc23)CC1 [AMUVATINIB]
13 | > 30 µM (inactive) | > 30 µM (inactive) | > 30 µM (inactive) | > 30 µM (inactive) | > 30 µM (inactive) | > 30 µM (inactive) | > 30 µM (inactive) | > 30 µM (inactive) | C=CC(=O)Nc1cccc(Nc2nc(Nc3ccc(N4CCN(C(C)=O)CC4)cc3OC)ncc2C(F)(F)F)c1 [ROCILETINIB]
14 | > 30 µM (inactive) | > 30 µM (inactive) | > 30 µM (inactive) | > 30 µM (inactive) | > 30 µM (inactive) | > 30 µM (inactive) | > 30 µM (inactive) | > 30 µM (inactive) | CCc1cc2c(cc1N1CCC(N3CCOCC3)CC1)C(C)(C)c1[nH]c3cc(C#N)ccc3c1C2=O [ALECTINIB]
15 | > 30 µM (inactive) | > 30 µM (inactive) | > 30 µM (inactive) | > 30 µM (inactive) | > 30 µM (inactive) | > 30 µM (inactive) | > 30 µM (inactive) | > 30 µM (inactive) | COc1cc2ncnc(Nc3ccc(F)c(Cl)c3)c2cc1NC(=O)/C=C/CN1CCCCC1 [DACOMITINIB ANHYDROUS]
16 | > 30 µM (inactive) | > 30 µM (inactive) | > 30 µM (inactive) | > 30 µM (inactive) | > 30 µM (inactive) | > 30 µM (inactive) | > 30 µM (inactive) | > 30 µM (inactive) | C#Cc1cccc(Nc2ncnc3cc4c(cc23)OCCOCCOCCO4)c1 [ICOTINIB]
17 | > 30 µM (inactive) | > 30 µM (inactive) | > 30 µM (inactive) | > 30 µM (inactive) | > 30 µM (inactive) | > 30 µM (inactive) | > 30 µM (inactive) | > 30 µM (inactive) | COc1ccc2c(OCc3nnc4ccc(-c5ccccc5)nn34)ccnc2c1 [AMG-208]
